{"source": "patent US12723063B2", "about": "“GIPR-agonist compounds” (Eli Lilly and Company, priority 2019, dated 2026)", "key": {"[1]": {"target": "T1, human glucagon receptor (GcgR) (Homo sapiens, UniProt P47871)", "T1 construct": "expressed in transfected cells; host or cells: HEK293", "T1 sequence (P47871 26-477)": "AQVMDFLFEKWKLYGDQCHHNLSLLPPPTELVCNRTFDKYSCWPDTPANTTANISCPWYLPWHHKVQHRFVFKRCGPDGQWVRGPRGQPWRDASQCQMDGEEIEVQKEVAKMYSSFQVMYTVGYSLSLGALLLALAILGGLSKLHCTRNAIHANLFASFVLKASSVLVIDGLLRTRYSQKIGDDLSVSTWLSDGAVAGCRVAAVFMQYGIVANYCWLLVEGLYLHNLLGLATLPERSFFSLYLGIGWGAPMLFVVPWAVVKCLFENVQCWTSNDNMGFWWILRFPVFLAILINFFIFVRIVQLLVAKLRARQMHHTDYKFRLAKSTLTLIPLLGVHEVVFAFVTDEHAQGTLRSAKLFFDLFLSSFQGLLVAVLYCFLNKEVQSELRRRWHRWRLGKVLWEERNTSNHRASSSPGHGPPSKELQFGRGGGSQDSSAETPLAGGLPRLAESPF", "assay": "cAMP functional assay (HTRF) in HEK293 cells in presence of 0.1% casein", "format": "cell-based", "conditions": "HEK293 cells expressing human GcgR, geometric mean, read-out: hGcgR cAMP Rel EC50 nM (SEM, n)"}, "[2]": {"target": "T2, human glucose-dependent insulinotropic peptide receptor (GIPR) (Homo sapiens, UniProt P48546)", "T2 construct": "expressed in transfected cells; host or cells: HEK293", "T2 sequence (P48546 22-466)": "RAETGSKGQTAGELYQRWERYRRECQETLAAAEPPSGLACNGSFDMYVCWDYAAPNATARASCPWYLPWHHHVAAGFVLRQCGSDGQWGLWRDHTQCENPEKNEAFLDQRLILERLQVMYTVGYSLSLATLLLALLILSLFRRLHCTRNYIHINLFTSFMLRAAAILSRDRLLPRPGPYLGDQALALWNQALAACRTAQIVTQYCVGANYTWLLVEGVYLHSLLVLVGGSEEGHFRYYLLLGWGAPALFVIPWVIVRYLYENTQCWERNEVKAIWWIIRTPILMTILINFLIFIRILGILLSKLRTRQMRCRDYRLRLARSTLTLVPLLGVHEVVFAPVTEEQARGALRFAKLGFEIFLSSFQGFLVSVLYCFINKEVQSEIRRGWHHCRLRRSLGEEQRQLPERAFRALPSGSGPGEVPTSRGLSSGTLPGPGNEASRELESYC", "assay": "cAMP functional assay (HTRF) in HEK293 cells in presence of 0.1% casein", "format": "cell-based", "conditions": "HEK293 cells expressing human GIPR, geometric mean, read-out: hGIPR cAMP Rel EC50 nM (SEM, n)"}}, "note": "*1 amine or outer side, *2 acyl side, *3 side chain or, on linkers, in order; H or OH if unused. Where a SMILES comes first, the peptide text is derived from it. Side-chain parts run from the residue outwards. [ ]: non-standard residue; d: D form. The star is where a group is joined. C20 diacid = O=C(O)CCCCCCCCCCCCCCCCCCC(=O)*; C18 diacid = O=C(O)CCCCCCCCCCCCCCCCC(=O)*; γGlu = O=C(O)[C@H](CCC(=O)[*:2])N[*:1]; AEEA = NCCOCCOCC(=O)O; Aib = CC(C)(N)C(=O)O"}
{"smiles": "CC[C@H](C)[C@H](NC(=O)[C@H](CO)NC(=O)[C@H](Cc1ccc(O)cc1)NC(=O)[C@H](CC(=O)O)NC(=O)[C@H](CO)NC(=O)[C@@H](NC(=O)[C@H](Cc1ccccc1)NC(=O)[C@@H](NC(=O)CNC(=O)[C@H](CCC(=O)O)NC(=O)[C@@H](C)NC(=O)[C@@H](N)Cc1ccc(O)cc1)[C@@H](C)O)[C@@H](C)CC)C(=O)N[C@@H](CC(C)C)C(=O)N[C@@H](CC(C)C)C(=O)N[C@@H](CC(=O)O)C(=O)N[C@@H](CCCCN)C(=O)N[C@@H](CCCCNC(=O)COCCOCCNC(=O)COCCOCCNC(=O)CC[C@H](NC(=O)CCCCCCCCCCCCCCCCCCC(=O)O)C(=O)O)C(=O)N[C@@H](Cc1c[nH]cn1)C(=O)N[C@@H](CCC(N)=O)C(=O)N[C@@H](CCC(N)=O)C(=O)N[C@@H](CCC(=O)O)C(=O)N[C@@H](Cc1ccccc1)C(=O)N[C@H](C(=O)N[C@@H](CC(N)=O)C(=O)N[C@@H](Cc1c[nH]c2ccccc12)C(=O)N[C@@H](CC(C)C)C(=O)N[C@@H](CC(C)C)C(=O)N[C@@H](C)C(=O)N[C@@H](CCC(N)=O)C(=O)NCC(=O)N1CCC[C@H]1C(=O)N[C@@H](CO)C(=O)N[C@@H](CO)C(=O)NCC(=O)N[C@@H](C)C(=O)N1CCC[C@H]1C(=O)N1CCC[C@H]1C(=O)N1CCC[C@H]1C(=O)N[C@@H](CO)C(N)=O)C(C)C", "note": "[Example 13] (H-Y[dA]EGTFISDYSILLDKK([AEEA-AEEA-γGlu-C20 diacid])HQQEFVNWLLAQGPSSGAPPPS-NH2)", "values": [{"measurement": "EC50", "setting": "[1]", "result": "> 5000", "unit": "nM"}, {"measurement": "EC50", "setting": "[2]", "result": 0.129, "unit": "nM"}]}
{"smiles": "CC[C@H](C)[C@H](NC(=O)[C@H](CO)NC(=O)[C@H](Cc1ccc(O)cc1)NC(=O)[C@H](CC(=O)O)NC(=O)[C@H](CO)NC(=O)[C@@H](NC(=O)[C@H](Cc1ccccc1)NC(=O)[C@@H](NC(=O)CNC(=O)[C@H](CCC(=O)O)NC(=O)[C@@H](C)NC(=O)[C@@H](N)Cc1ccc(O)cc1)[C@@H](C)O)[C@@H](C)CC)C(=O)N[C@@H](CC(C)C)C(=O)N[C@@H](CC(C)C)C(=O)N[C@@H](CC(=O)O)C(=O)N[C@@H](CCCCN)C(=O)N[C@@H](CCCCNC(=O)COCCOCCNC(=O)COCCOCCNC(=O)CC[C@H](NC(=O)CCCCCCCCCCCCCCCCCCC(=O)O)C(=O)O)C(=O)N[C@@H](Cc1c[nH]cn1)C(=O)N[C@@H](CCC(N)=O)C(=O)N[C@@H](CCC(N)=O)C(=O)N[C@@H](CC(=O)O)C(=O)N[C@@H](Cc1ccccc1)C(=O)N[C@H](C(=O)N[C@@H](CCC(=O)O)C(=O)N[C@@H](Cc1c[nH]c2ccccc12)C(=O)N[C@@H](CC(C)C)C(=O)N[C@@H](CC(C)C)C(=O)N[C@@H](C)C(=O)N[C@@H](CCC(N)=O)C(=O)NCC(=O)N1CCC[C@H]1C(=O)N[C@@H](CO)C(=O)N[C@@H](CO)C(=O)NCC(=O)N[C@@H](C)C(=O)N1CCC[C@H]1C(=O)N1CCC[C@H]1C(=O)N1CCC[C@H]1C(=O)N[C@@H](CO)C(N)=O)C(C)C", "note": "[Example 14] (H-Y[dA]EGTFISDYSILLDKK([AEEA-AEEA-γGlu-C20 diacid])HQQDFVEWLLAQGPSSGAPPPS-NH2)", "values": [{"measurement": "EC50", "setting": "[1]", "result": "> 5000", "unit": "nM"}, {"measurement": "EC50", "setting": "[2]", "result": 0.34, "unit": "nM"}]}
{"smiles": "CC[C@H](C)[C@H](NC(=O)[C@H](CO)NC(=O)[C@H](Cc1ccc(O)cc1)NC(=O)[C@H](CC(=O)O)NC(=O)[C@H](CO)NC(=O)[C@@H](NC(=O)[C@H](Cc1ccccc1)NC(=O)[C@@H](NC(=O)CNC(=O)[C@H](CCC(=O)O)NC(=O)[C@@H](C)NC(=O)[C@@H](N)Cc1ccc(O)cc1)[C@@H](C)O)[C@@H](C)CC)C(=O)N[C@@H](CC(C)C)C(=O)N[C@@H](CC(C)C)C(=O)N[C@@H](CC(=O)O)C(=O)N[C@@H](CCCCN)C(=O)N[C@@H](CCCCNC(=O)COCCOCCNC(=O)COCCOCCNC(=O)CC[C@H](NC(=O)CCCCCCCCCCCCCCCCCCC(=O)O)C(=O)O)C(=O)N[C@@H](Cc1c[nH]cn1)C(=O)N[C@@H](CCC(N)=O)C(=O)N[C@@H](CCC(N)=O)C(=O)N[C@@H](CC(=O)O)C(=O)N[C@@H](Cc1ccccc1)C(=O)N[C@H](C(=O)N[C@@H](CC(N)=O)C(=O)N[C@@H](Cc1ccc(O)cc1)C(=O)N[C@@H](CC(C)C)C(=O)N[C@@H](CC(C)C)C(=O)N[C@@H](C)C(=O)N[C@@H](CCC(N)=O)C(=O)NCC(=O)N1CCC[C@H]1C(=O)N[C@@H](CO)C(=O)N[C@@H](CO)C(=O)NCC(=O)N[C@@H](C)C(=O)N1CCC[C@H]1C(=O)N1CCC[C@H]1C(=O)N1CCC[C@H]1C(=O)N[C@@H](CO)C(N)=O)C(C)C", "note": "[Example 15] (H-Y[dA]EGTFISDYSILLDKK([AEEA-AEEA-γGlu-C20 diacid])HQQDFVNYLLAQGPSSGAPPPS-NH2)", "values": [{"measurement": "EC50", "setting": "[1]", "result": "> 5000", "unit": "nM"}, {"measurement": "EC50", "setting": "[2]", "result": 0.282, "unit": "nM"}]}
{"smiles": "CC[C@H](C)[C@H](NC(=O)[C@H](CO)NC(=O)[C@H](Cc1ccc(O)cc1)NC(=O)[C@H](CC(=O)O)NC(=O)[C@H](CO)NC(=O)[C@@H](NC(=O)[C@H](Cc1ccccc1)NC(=O)[C@@H](NC(=O)CNC(=O)[C@H](CCC(=O)O)NC(=O)[C@@H](C)NC(=O)[C@@H](N)Cc1ccc(O)cc1)[C@@H](C)O)[C@@H](C)CC)C(=O)N[C@@H](CC(C)C)C(=O)N[C@@H](CC(C)C)C(=O)N[C@@H](CC(=O)O)C(=O)N[C@@H](CCCCN)C(=O)N[C@@H](CCCCNC(=O)COCCOCCNC(=O)COCCOCCNC(=O)CC[C@H](NC(=O)CCCCCCCCCCCCCCCCC(=O)O)C(=O)O)C(=O)N[C@@H](C)C(=O)N[C@@H](CCC(N)=O)C(=O)NC(C)(C)C(=O)N[C@@H](CC(=O)O)C(=O)N[C@@H](Cc1ccccc1)C(=O)N[C@H](C(=O)N[C@@H](CCC(=O)O)C(=O)N[C@@H](Cc1c[nH]c2ccccc12)C(=O)N[C@@H](CC(C)C)C(=O)N[C@@H](CC(C)C)C(=O)N[C@@H](C)C(=O)N[C@@H](CCC(N)=O)C(=O)NCC(=O)N1CCC[C@H]1C(=O)N[C@@H](CO)C(=O)N[C@@H](CO)C(=O)NCC(=O)N[C@@H](C)C(=O)N1CCC[C@H]1C(=O)N1CCC[C@H]1C(=O)N1CCC[C@H]1C(=O)N[C@@H](CO)C(N)=O)C(C)C", "note": "[Example 16] (H-Y[dA]EGTFISDYSILLDKK([AEEA-AEEA-γGlu-C18 diacid])AQ[Aib]DFVEWLLAQGPSSGAPPPS-NH2)", "values": [{"measurement": "EC50", "setting": "[1]", "result": "> 5000", "unit": "nM"}, {"measurement": "EC50", "setting": "[2]", "result": 0.00937, "unit": "nM"}]}
{"smiles": "CC[C@H](C)[C@H](NC(=O)[C@H](CO)NC(=O)[C@H](Cc1ccc(O)cc1)NC(=O)[C@H](CC(=O)O)NC(=O)[C@H](CO)NC(=O)[C@@H](NC(=O)[C@H](Cc1ccccc1)NC(=O)[C@@H](NC(=O)CNC(=O)[C@H](CCC(=O)O)NC(=O)[C@@H](C)NC(=O)[C@@H](N)Cc1ccc(O)cc1)[C@@H](C)O)[C@@H](C)CC)C(=O)N[C@@H](CC(C)C)C(=O)N[C@@H](CC(C)C)C(=O)N[C@@H](CC(=O)O)C(=O)N[C@@H](CCCCN)C(=O)N[C@@H](CCCCNC(=O)COCCOCCNC(=O)COCCOCCNC(=O)CC[C@H](NC(=O)CCCCCCCCCCCCCCCCC(=O)O)C(=O)O)C(=O)N[C@@H](C)C(=O)N[C@@H](CCC(N)=O)C(=O)NC(C)(C)C(=O)N[C@@H](CC(=O)O)C(=O)N[C@@H](Cc1ccccc1)C(=O)N[C@H](C(=O)N[C@@H](CC(N)=O)C(=O)N[C@@H](Cc1c[nH]c2ccccc12)C(=O)N[C@@H](CC(C)C)C(=O)N[C@@H](CC(C)C)C(=O)N[C@@H](CCC(=O)O)C(=O)N[C@@H](CCC(N)=O)C(=O)NCC(=O)N1CCC[C@H]1C(=O)N[C@@H](CO)C(=O)N[C@@H](CO)C(=O)NCC(=O)N[C@@H](C)C(=O)N1CCC[C@H]1C(=O)N1CCC[C@H]1C(=O)N1CCC[C@H]1C(=O)N[C@@H](CO)C(N)=O)C(C)C", "note": "[Example 17] (H-Y[dA]EGTFISDYSILLDKK([AEEA-AEEA-γGlu-C18 diacid])AQ[Aib]DFVNWLLEQGPSSGAPPPS-NH2)", "values": [{"measurement": "EC50", "setting": "[1]", "result": "> 5000", "unit": "nM"}, {"measurement": "EC50", "setting": "[2]", "result": 0.0135, "unit": "nM"}]}
